Laboratory results from patent publication US7815900B1, “Use of C3-C5 monosaccharides to protect keratinous fibers” (L'Oréal S.A., priority 2000, dated 2010).

How the values were obtained:
[1] = DSC doublet peak area (α-structure) of hair after heat cycles; details: for Doublet Peak Area: bleached/permed hair after 12 heat cycles, 0.06 M solutions
Protocol: Normal blonde hair was bleached with Clairol Basic White Bleach (40 volume H2O2) for 20 min at standard room temperature and humidity. The bleached swatches were rinsed with tap water, and soaked in an excess of deionized water for 2 hours. The swatches were air-dried and equilibrated for 48 hours prior to further treatment. Some of the bleached swatches were subsequently “permed” using a Reforming Lotion (10% TGA, pH 8.8, 20 minutes) and then neutralized with 2% H2O2, pH 3 (5 minutes). The bleached/permed swatches were rinsed with tap water, and soaked in an excess of deionized water for 2 hours. The swatches were air-dried and equilibrated for 48 hours prior to further treatment. The swatches that were heat treated were treated with 0.06M solutions of hexoses and pentoses for 10 min at 45° C. and then were heated for 12 cycles. The swatches were rinsed after the heat application. In the DSC tests, finely cut hair (4-5 mg) was crimped in an aluminum pan that was punctured prior to each run. The samples were heated from 25° C. to 300° C., at a scanning rate of 20° C./min, with 5 runs per treatment. The results were averaged. Normal blonde hair was divided in two batches. The hair from the first batch was bleached with Clairol Basic White Bleach, 40 volume H2O2, for 20 min at room temperature and humidity. The hair from the second batch was first bleached as above, and then permed: Reforming lotion-10% Thioglycolic acid, pH 8.8, 20 min; neutralizer-2% hydrogen peroxide, 5 min. The oxidatively damaged hair was equilibrated for 24 hours prior to further testing. Both the bleached and the bleached/permed hair were subjected to heat treatment, as in Example 2. The heat treatment experiment involved 12 heat cycles including application of sugar or control solution before each heat application, and rinsing after the heat application. Deionized water was used as a control treatment. After the heat experiment, the hair was rinsed in water, air-dried, and equilibrated for 24 h in the humidity chamber at 25° C. and 50% RH prior to further testing. The effect of the hexoses vs. pentoses on the dry tensile strength (INSTRON) and the alpha-structure (doublet peak area, DSC) was tested on the bleached hair (Table 13). The effect of a hexose (D-glucose) vs. a pentose (D-Xylose) on wet tensile strength (DIA-STRON) was tested both on the bleached and the bleached/permed hair (Table 14). Application of 0.06M solutions of pentoses protected the bleached and the bleached/permed hair against thermal damage (α-structure; wet and dry tensile strength).

[2] = Dry tensile strength (Instron) after heat cycles
Protocol: Normal blonde hair was bleached with Clairol Basic White Bleach (40 volume H2O2) for 20 min at standard room temperature and humidity. The bleached swatches were rinsed with tap water, and soaked in an excess of deionized water for 2 hours. The swatches were air-dried and equilibrated for 48 hours prior to further treatment. Some of the bleached swatches were subsequently “permed” using a Reforming Lotion (10% TGA, pH 8.8, 20 minutes) and then neutralized with 2% H2O2, pH 3 (5 minutes). The bleached/permed swatches were rinsed with tap water, and soaked in an excess of deionized water for 2 hours. The swatches were air-dried and equilibrated for 48 hours prior to further treatment. The swatches that were heat treated were treated with 0.06M solutions of hexoses and pentoses for 10 min at 45° C. and then were heated for 12 cycles. The swatches were rinsed after the heat application.
(§1) Tensile strength was determined using both the Instron (50 dry fibers per tests) and the Dia-Stron (100 wet fibers per test), with the stretching rate of 100 mm/min. The following parameters were determined: Young's Modulus (N/m^2), Work to stretch 25% (J/m^2); Extension to Break (degree of elongation) (%); Work to Break (J/m^2).
(§2) Normal blonde hair was bleached with Clairol Basic White Bleach, 40 volume H2O2, for 20 min at room temperature. One batch of normal and bleached hair swatches underwent five heat cycles at 130° C., where one treatment cycle involved the following steps (1-4):
(§3) 1. The swatches were treated with 0.06 M solutions of monosaccharides in deionized water (about 1 wt %) for 10 min at 45° C.
(§4) 2. The treated swatches were blow-dried for 1 min.
(§5) 3. The heat was applied for 1 min in the form of a flat hair iron Windmere “Solid Gold” (130° C.).
(§6) 4. The swatches were rinsed and blot-dried with a paper-towel.
(§7) The treatment solutions included four pentoses (D-xylose, D-arabinose, D-lyxose, and D-ribose, 1% each) and one hexose (1.2% D-glucose). Deionized water was used as a control treatment. After the heat experiment, the hair was rinsed in water, air-dried, and equilibrated for 24 hours in the humidity chamber at 25° C. and 50% RH prior to further testing. These swatches are referred to as treated at 130° C.
(§8) A second batch of normal and bleached hair swatches were treated in a similar way and blow-dried, without application of the hot iron. The treatment was also repeated 5 times, the swatches from the second batch are referred to as treated at 45° C.
Both the bleached and the bleached/permed hair were subjected to heat treatment, as in Example 2. The heat treatment experiment involved 12 heat cycles including application of sugar or control solution before each heat application, and rinsing after the heat application. Deionized water was used as a control treatment.
After the heat experiment, the hair was rinsed in water, air-dried, and equilibrated for 24 h in the humidity chamber at 25° C. and 50% RH prior to further testing. The effect of the hexoses vs. pentoses on the dry tensile strength (INSTRON) and the alpha-structure (doublet peak area, DSC) was tested on the bleached hair (Table 13). The effect of a hexose (D-glucose) vs. a pentose (D-Xylose) on wet tensile strength (DIA-STRON) was tested both on the bleached and the bleached/permed hair (Table 14). Application of 0.06M solutions of pentoses protected the bleached and the bleached/permed hair against thermal damage (α-structure; wet and dry tensile strength).

[3] = Dry tensile strength (Instron) after heat cycles; details: normal blonde hair, 0.06 M solutions, n = 50 fibers; for Work 25%: dry, 5 cycles at 45° C.; for Work 25% (Dry): 5 heat cycles at 130° C.
Protocol: as §1, §2, §3, §4, §5, §6, §7, §8

[4] = Protein loss from hair in water; details: bleached hair treated 5 times (1% solutions; Xylo-Biose Syrup 1.5%), then 1 h at 45° C. in deionized water
Protocol: XyloBiose Syrup is a raw material that contains about 15 wt % of xylobiose (dimer) and about 12 wt % of xylose. Xylo-Oligo 95P is a raw material containing about 22 wt % of xylobiose. Bleached hair was rinsed and blot-dried with a paper-towel. The treatment solution was then applied to the hair for 10 min at 45° C., and the hair was blow-dried. The procedure was repeated 5 times. Each of the following solutions was tested: • 1% D-Xylose • 1% Xylo-Oligo 95P • 1.5% XyloBiose Syrup • deionized water-control treatment
Following blow drying, a hair swatch (0.5 g) was immersed in 25 mL of deionized water for 1 h at 45° C. and the water was analyzed for the protein content. Id.

[5] = bleached hair after 12 heat cycles, 0.06 M solutions, n = 100 fibers
[6] = bleached hair, 5 heat cycles at 130° C., 0.06 M solutions, n = 50 fibers
[7] = dry bleached hair, 12 heat cycles, 0.06 M, INSTRON, n = 50 fibers
[8] = dry, bleached hair, 5 cycles at 45° C., 0.06 M solutions, n = 50 fibers

Row | SMILES | Doublet Peak Area [1] | Work 25% (Dry) [2, 5] | Work 25% (Dry) [2, 6] | Extension-Break [2, 7] | Work 25% [2, 7] | Work-Break [2, 7] | Young's Modulus [2, 7] | Work 25% [2, 8] | Work 25% [3] | Work 25% (Dry) [3] | Protein loss [4] | Normalized area ([1]; bleached/permed hair, 12 heat cycles, 0.06 M) | protection of dry tensile strength, in words ([2]; hair treated 5 cycles at 45° C. and at 130° C.)
1 | O=C[C@H](O)[C@@H](O)[C@H](O)[C@H](O)CO [D-Glucose, reference compound] | 4.96 +/− 0.32 J/g hair | 913.9 +/− 158.2 J/m^2 | 864.7 +/− 184.4 J/m^2 | 56.01 +/− 7.21% | 913.9 +/− 158.2 J/m^2 | 2,599 +/− 604 J/m^2 | 4,623 +/− 813 MN/m^2 | 984.6 +/− 169.6 J/m^2 | 837.0 +/− 255.9 J/m^2 | 836.9 +/− 119.6 J/m^2 | – | – | –
2 | O=C[C@H](O)[C@@H](O)[C@H](O)CO [D-Xylose] | 9.78 +/− 1.48 J/g hair | 1,204 +/− 215 J/m^2 | 1,051 +/− 191 J/m^2 | 55.28 +/− 7.08% | 1,204 +/− 215 J/m^2 | 3,161 +/− 771 J/m^2 | 5,802 +/− 1,161 MN/m^2 | 1,182 +/− 215 J/m^2 | 1,155 +/− 224 J/m^2 | 1,150 +/− 818 J/m^2 | 200.9 +/− 36.5 microgram/g hair | 9.78 +/− 1.48 J/g hair | improved protection both at 45 °C and at 130 °C
